Where two headings read alike, the source gives them in different places.
How the values were obtained:
[1] = molecular target: T1, Human cytomegalovirus DNA polymerase (Human cytomegalovirus, UniProt P08546); assay: HCMV polymerase assay (AlphaLISA); assay type: biochemical; settings: HCMV DNA polymerase 0.2 nM, 60 minutes at 37° C.; read-out: CMV (IC50)
T1 construct: made in house; host or cells: SF21 insect cells (baculovirus vector)
Summary of the method: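 Baculovirus/SF21-expressed polymerase (HCMV 0.2 nM; VZV 0.4 nM) pre-incubated 30 min at room temperature with compound in HEPES pH 7.5 buffer, then 60 min at 37 °C with 1.6 nM DIG-primer/template, sub-nM to 24 nM dNTPs and 0.8 nM biotin-dUTP. AlphaLISA detection; IC50 from 4-parameter fit.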

HCMV Strain AD169 = assay: Viral qPCR assay, HCMV in MRC-5 cells; assay type: cell-based, Human cytomegalovirus; settings: read-out: CMV MRC5 Cell (EC50)
Summary of the method: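 MRC-5 cells infected in suspension with HCMV AD169 (0.05-0.1 pfu/cell) and added to 10-point 3-fold compound dilutions, in growth media or media with 50% FBS. After ~72 h at 37 °C, lysates analysed by TaqMan qPCR against a plasmid standard curve, viral copies normalised to PPIA or not. EC50 from 4-parameter fit.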

HSV-1 Strain F = assay: Viral qPCR assay, HSV-1 in Vero cells; assay type: cell-based, Herpes Simplex Virus type 1; settings: read-out: HSV1 VERO Cell (EC50)
Experimental: (§1) MRCS cells, Vero cells, and MeWo cells were obtained from ATCC and were maintained at 37° C./5% CO2/90% relative humidity in Minimal Essential Medium with 10% fetal bovine serum, […] L-glutamine, 100 units/ml penicillin and 100 ug/ml streptomycin. Assay plates were prepared by dispensing compounds dissolved in DMSO into wells of 384 well collagen-coated plates using an ECHO acoustic dispenser. Each compound was tested in a 10-point, serial 3-fold dilution. Controls included uninfected cells and infected cells treated only with DMSO. Assays were initiated by mixing selected cells, in suspension, with virus, and dispensing 50 μl/well infected cells to pre-plated compounds. Plates were incubated at 37° C./5% CO2/90% relative humidity for ˜72 hrs to permit genomic replication, and infected cells were lysed by the addition of an equal volume of lysis buffer (10 mM Tris-HCl, pH8, 50 mM KCl, 2 mM MgCl2, 0.45% NP-40, 0.45% Tween-20, and 100 μg/ml proteinase K). An aliquot of the lysate was transferred to a 384-well PCR plate and incubated at 56° C. for 1 hour and then at 95° C. for 10 min. Levels of a viral gene and of the cellular control, PPIA (Thermo Fisher Assay ID=Hs04194521_s1), were measured in separate 10 μL qPCR assays using TaqMan® Gene Expression Master Mix (Applied Biosystems), and an 7900HT Fast Real-Time PCR System with 384-Well Block Module. 7-point, serial 10-fold dilutions of a plasmid standard were run on each plate to generate a standard curve, and genome copies numbers were calculated by plotting experimental Ct onto linear regression of the standard curve. Viral genome copy numbers were normalized by cellular control copy number, and compound effects were normalized to the window defined by the controls. Calculated % effects were fit using a 4-parameter algorithm, and EC50 was reported.
as §1, with “gene” for “gene and of the cellular control, PPIA (Thermo Fisher Assay ID=Hs04194521_s1),”, “in” for “in separate”, “Compound effects on viral” for “Viral”, “number” for “numbers were normalized by cellular control copy number, and compound effects”
VZV: Strain Street was maintained as an infected cell stock in MRC-5 cells. It was assayed in MeWo or MRCS cells and was used at 0.04-0.1 pfu/cell. The assays were performed in growth medium. Primer-probe set was Thermo Fisher Assay ID=AIPAEXQ. HSV-1: Strain F Street was assayed in Vero or MRCS cells and was used at 0.0005-0.004 pfu/cell in growth medium. Primer-probe set was Thermo Fisher Assay ID=AIBJZIB

[2] = molecular target: T2, varicella zoster virus DNA polymerase (Varicella-zoster virus, UniProt P09252); assay: VZV polymerase assay (AlphaLISA); assay type: biochemical; settings: VZV DNA polymerase 0.4 nM, 60 minutes at 37° C.
T2 construct: made in house; host or cells: SF21 insect cells (baculovirus vector)
Experimental: Human cytomegalovirus and varicella zoster virus DNA polymerases were expressed via baculovirus vector in SF21 cells and purified. Heterodimeric nucleic acid substrate used in the herpesvirus polymerase reactions was generated by annealing a 59-mer template to a 17-mer digoxigenin-labeled primer. Polymerase (HCMV final concentration of 0.2 nM; VZV final concentration of 0.4 nM) was combined with an inhibitor compound or DMSO in assay buffer (10 mM HEPES, pH 7.5, 25 mM KCl, 25 mM NaCl, 5 mM MgCl2, 5% glycerol, 0.67 mg/ml bovine serum albuminutes, and 1 mM tris(2-carboxyethyl)phosphine), and this mixture was pre-incubated for 30 minutes at room temperature in 384-well microtiter plates. The polymerization reaction was initiated by the addition of template/primer substrate (final concentration: 1.6 nM), and dNTPs (final concentration: 24 nM dCTP, 24 nMdGTP, 16 nM dATP, 16 nM dTTP, and 0.8 nM biotin-dUTP). After 60 minutes incubation at 37° C., reactions were terminated with quench buffer (25 mM HEPES pH 7.5, 100 mM NaCl, 0.25% Tween-20, 12 mM EDTA, and 1 mg/ml bovine serum albumin). Incorporation of biotinylated UTP was detected with 2.5-ug/ml anti-DIG AlphaLISA acceptor beads and 5-10 ug/ml streptavidin AlphaLISA donor beads (Perkin Elmer). Compound effects were normalized to the window defined by the controls (DMSO only and pre-quenched wells) and were fit using a 4-parameter algorithm to report an IC50.

HSV2 = assay: Viral qPCR assay, HSV2 in Vero cells; assay type: cell-based, Herpes Simplex Virus type 2; settings: read-out: HSV2 VERO Cell (EC50)
Experimental: as §1
as §1, with “gene” for “gene and of the cellular control, PPIA (Thermo Fisher Assay ID=Hs04194521_s1),”, “in” for “in separate”, “Compound effects on viral” for “Viral”, “number” for “numbers were normalized by cellular control copy number, and compound effects”

[3] = Human betaherpesvirus 5, AD169, MRC5, 72 h
[4] = Human alphaherpesvirus 1, Vero, 72 h
[5] = Human alphaherpesvirus 2, Vero, 72 h

T1 sequence (P08546 whole entry): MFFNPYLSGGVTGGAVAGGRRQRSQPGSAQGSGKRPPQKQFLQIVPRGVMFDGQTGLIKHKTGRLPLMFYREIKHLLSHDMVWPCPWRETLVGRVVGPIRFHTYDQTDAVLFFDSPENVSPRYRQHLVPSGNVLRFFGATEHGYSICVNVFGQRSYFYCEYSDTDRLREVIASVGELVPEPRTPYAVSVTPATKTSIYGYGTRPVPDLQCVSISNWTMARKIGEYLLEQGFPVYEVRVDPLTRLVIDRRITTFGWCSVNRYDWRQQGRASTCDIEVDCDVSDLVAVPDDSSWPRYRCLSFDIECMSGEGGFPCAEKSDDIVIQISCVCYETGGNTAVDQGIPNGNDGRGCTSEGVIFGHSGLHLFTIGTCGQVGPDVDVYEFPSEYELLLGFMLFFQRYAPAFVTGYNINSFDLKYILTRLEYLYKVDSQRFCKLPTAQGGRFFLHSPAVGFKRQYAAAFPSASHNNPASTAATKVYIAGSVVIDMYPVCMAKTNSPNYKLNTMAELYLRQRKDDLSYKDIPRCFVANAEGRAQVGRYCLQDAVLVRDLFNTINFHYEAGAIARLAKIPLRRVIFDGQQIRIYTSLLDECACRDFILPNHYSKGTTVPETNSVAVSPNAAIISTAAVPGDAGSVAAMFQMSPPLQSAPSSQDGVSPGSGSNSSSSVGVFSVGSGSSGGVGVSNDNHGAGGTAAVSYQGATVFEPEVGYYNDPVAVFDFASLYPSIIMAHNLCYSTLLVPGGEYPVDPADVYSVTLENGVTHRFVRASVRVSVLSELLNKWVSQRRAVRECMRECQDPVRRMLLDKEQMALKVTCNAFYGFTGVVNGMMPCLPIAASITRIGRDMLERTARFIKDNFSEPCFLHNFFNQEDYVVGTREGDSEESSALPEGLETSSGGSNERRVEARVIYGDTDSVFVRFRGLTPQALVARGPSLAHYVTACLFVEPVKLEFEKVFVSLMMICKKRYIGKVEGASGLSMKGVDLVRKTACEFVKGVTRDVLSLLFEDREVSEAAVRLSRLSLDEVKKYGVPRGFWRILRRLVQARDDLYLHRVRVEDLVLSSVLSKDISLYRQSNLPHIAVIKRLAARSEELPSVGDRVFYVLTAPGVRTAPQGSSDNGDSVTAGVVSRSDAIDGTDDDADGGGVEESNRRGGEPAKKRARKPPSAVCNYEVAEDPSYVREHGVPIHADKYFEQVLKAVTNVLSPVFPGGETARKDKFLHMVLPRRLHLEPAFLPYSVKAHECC
T2 sequence (P09252 whole entry): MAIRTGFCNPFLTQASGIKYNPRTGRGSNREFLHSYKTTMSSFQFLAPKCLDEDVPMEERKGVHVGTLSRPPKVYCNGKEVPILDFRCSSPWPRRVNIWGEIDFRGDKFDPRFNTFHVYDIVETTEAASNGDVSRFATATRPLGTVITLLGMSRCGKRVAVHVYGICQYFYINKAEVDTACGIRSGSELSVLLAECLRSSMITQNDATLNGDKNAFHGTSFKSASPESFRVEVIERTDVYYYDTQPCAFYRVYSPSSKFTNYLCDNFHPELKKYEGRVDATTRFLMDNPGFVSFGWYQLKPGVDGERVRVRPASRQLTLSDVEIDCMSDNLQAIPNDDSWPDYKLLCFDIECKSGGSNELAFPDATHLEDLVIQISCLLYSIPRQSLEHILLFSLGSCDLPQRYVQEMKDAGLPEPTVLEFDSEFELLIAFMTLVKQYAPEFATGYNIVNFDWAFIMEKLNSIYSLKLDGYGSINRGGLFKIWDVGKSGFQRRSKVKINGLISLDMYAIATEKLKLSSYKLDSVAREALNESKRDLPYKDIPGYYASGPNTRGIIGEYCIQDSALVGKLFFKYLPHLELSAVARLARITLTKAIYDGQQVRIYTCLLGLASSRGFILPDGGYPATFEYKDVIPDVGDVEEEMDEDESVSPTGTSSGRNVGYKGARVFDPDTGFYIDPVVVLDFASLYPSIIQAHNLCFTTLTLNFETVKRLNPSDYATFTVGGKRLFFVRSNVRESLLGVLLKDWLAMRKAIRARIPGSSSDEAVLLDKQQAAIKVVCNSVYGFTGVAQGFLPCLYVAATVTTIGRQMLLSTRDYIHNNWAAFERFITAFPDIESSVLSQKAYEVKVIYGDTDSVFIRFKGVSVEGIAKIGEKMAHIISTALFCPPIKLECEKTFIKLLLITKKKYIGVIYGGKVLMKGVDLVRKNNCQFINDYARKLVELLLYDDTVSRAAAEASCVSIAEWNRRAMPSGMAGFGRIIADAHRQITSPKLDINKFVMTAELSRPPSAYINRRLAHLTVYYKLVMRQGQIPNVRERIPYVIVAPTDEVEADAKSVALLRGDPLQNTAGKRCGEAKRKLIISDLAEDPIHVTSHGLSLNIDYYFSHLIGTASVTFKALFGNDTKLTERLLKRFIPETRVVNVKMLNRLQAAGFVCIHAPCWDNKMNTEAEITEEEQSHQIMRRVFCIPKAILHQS

| SMILES | IC50 [1] | EC50 (HSV-1 Strain F; ~72 hrs) | IC50 [2] | EC50 (HSV2; ~72 hrs) | EC50 (HSV-1 Strain F; [4]) | EC50 (HSV2; [5]) | EC50 (HCMV Strain AD169; MRC5 cells, ~72 hrs) | EC50 (HCMV Strain AD169; [3]) |
| --- | --- | --- | --- | --- | --- | --- | --- | --- |
| CCC1c2c(c(C(=O)NCc3ccc(Cl)cc3)nn2C)CN1CC1CCC(=O)N1 (single isomer, unassigned) [Compound 106] | 108 nM | 1060 nM | 30.5 nM | 1550 nM | – | – | 1170 nM | – |
| CC1c2c(c(C(=O)NCc3ccc(Cl)cc3)nn2C)CN1C[C@H]1CCC(=O)N1 (single isomer, unassigned) [Compound 107] | 4540 nM | 73800 nM | 1500 nM | 90300 nM | – | – | 99000 nM | – |
| O=C1CC[C@H](CC2Cc3c(C(=O)NCc4ccc(Cl)cc4)nn(C4CN(CC5CC5)C4)c3C2)N1 (single isomer, unassigned) [Compound 136] | 119 nM | – | 16.5 nM | – | 3520 nM | 2520 nM | – | 980 nM |
| O=C1CC[C@H](CN2Cc3c(C(=O)NCc4ccc(Cl)cc4)nn(CC4(CF)COC4)c3C2)N1 [Compound 41] | 111 nM | – | 23.7 nM | – | 20400 nM | 30600 nM | – | 6320 nM |
| CN(CCn1nc(C(=O)NCc2ccc(Cl)cc2)c2c1CN(Cc1c(F)cncc1F)C2)C(=O)C1CCC1 [Compound 63] | 99.3 nM | – | 76 nM | – | – | – | – | – |
| CN(CCn1nc(C(=O)NCc2ccc(Cl)cc2)c2c1CN(Cc1ccnc(F)c1)C2)C(=O)C1CCC1 [Compound 66] | 112 nM | – | 48.6 nM | – | – | – | – | – |
| CN(CCn1nc(C(=O)NCc2ccc(Cl)cc2)c2c1CN(Cc1ccncc1F)C2)C(=O)C1CCC1 [Compound 68] | 123 nM | – | 59.1 nM | – | – | – | – | – |
| O=C(NCc1ccc(Cl)cc1)c1nn(CCNC(=O)C2CCC2)c2c1CN(Cc1ccncc1F)C2 [Compound 69] | 173 nM | – | 84.9 nM | – | – | – | – | – |
| CC1c2c(c(C(=O)NCc3ccc(Cl)cc3)nn2C)CN1C[C@@H]1CCC(=O)N1 (stereo partly drawn) [Compound 101] | 531 nM | 29100 nM | 391 nM | – | – | – | 32700 nM | – |
| Cn1nc(C(=O)NCc2ccc(Cl)cc2)c2c1C(CO)N(C[C@H]1CCC(=O)N1)C2 (stereo partly drawn) [Compound 122] | 195 nM | 860 nM | 24.1 nM | – | – | – | 1310 nM | – |
| Cn1nc(C(=O)NCc2ccc(Cl)cc2)c2c1C1(CCC1)N(C[C@@H]1CCC(=O)N1)C2 [Compound 123] | 1210 nM | – | 898 nM | – | 13300 nM | – | – | 14600 nM |
| C[C@@H]1c2c(C(=O)NCc3ccc(Cl)cc3)nn(C)c2CN1C[C@H]1CCC(=O)N1 [Compound 125] | 1370 nM | 4980 nM | – | 8040 nM | – | – | 2980 nM | – |
| CN1CC(n2nc(C(=O)NCc3ccc(Cl)cc3)c3c2CC(C[C@@H]2CCC(=O)N2)C3)C1 (stereo partly drawn) [Compound 138] | 170 nM | 4310 nM | – | 5900 nM | – | – | 1870 nM | – |
| Cn1nc(C(=O)NCc2ccc(Cl)cc2)c2c1CC(O)(C[C@H]1CCC(=O)N1)C2 (stereo partly drawn) [Compound 139] | 50500 nM | 99000 nM | – | 33000 nM | – | – | 99000 nM | – |

These reach a lower IC50 [1]. Values come first.

| IC50 [1] | EC50 (HSV-1 Strain F; ~72 hrs) | IC50 [2] | EC50 (HSV2; ~72 hrs) | EC50 (HSV-1 Strain F; [4]) | EC50 (HSV2; [5]) | SMILES | EC50 (HCMV Strain AD169; MRC5 cells, ~72 hrs) | EC50 (HCMV Strain AD169; [3]) |
| --- | --- | --- | --- | --- | --- | --- | --- | --- |
| 4.44 nM | 3840 nM | 4.44 nM | 4120 nM | – | – | Cn1nc(C(=O)NCc2ccc(Cl)cc2)c2c1CC(CC1CCC(=O)N1)C2 (single isomer, unassigned) [Compound 130] | 1200 nM | – |
| 63.2 nM | 439 nM | 26.5 nM | 705 nM | – | – | Cn1nc(C(=O)NCc2ccc(Cl)cc2)c2c1CC(O)(CC1CCC(=O)N1)C2 (single isomer, unassigned) [Compound 140] | 2660 nM | – |
| 52.6 nM | – | 32.6 nM | – | 26100 nM | – | O=C1CC[C@H](CN2Cc3c(C(=O)NCc4ccc(Cl)cc4)nn(CCN4CC(F)C4)c3C2)N1 [Compound 4] | – | 2980 nM |
| 16.2 nM | – | 10.2 nM | – | 66100 nM | – | CC1(C(=O)NCCn2nc(C(=O)NCc3ccc(Cl)cc3)c3c2CN(C[C@H]2CCC(=O)N2)C3)CC1 [Compound 26] | – | 2630 nM |
| 54.8 nM | – | 31 nM | – | 1850 nM | 581 nM | CC(C)n1nc(C(=O)NCc2ccc(Cl)cc2)c2c1CN(C[C@H]1CCC(=O)N1)C2 [Compound 35] | – | 2670 nM |
| 23.3 nM | – | 60.8 nM | – | 15500 nM | 23400 nM | O=C1CC[C@H](CN2Cc3c(C(=O)NCc4ccc(Cl)cc4)nn(CC4(F)COC4)c3C2)N1 [Compound 37] | – | 3280 nM |
| 54.9 nM | – | 45.2 nM | – | 12400 nM | 16200 nM | O=C1CC[C@H](CN2Cc3c(C(=O)NCc4ccc(Cl)cc4)nn(CC4CCO4)c3C2)N1 (stereo partly drawn) [Compound 39] | – | 1580 nM |
| 89.1 nM | – | 90.8 nM | – | 23300 nM | 34500 nM | CCC1(Cn2nc(C(=O)NCc3ccc(Cl)cc3)c3c2CN(C[C@H]2CCC(=O)N2)C3)COC1 [Compound 40] | – | 5300 nM |
| 69.7 nM | – | 118 nM | – | – | – | O=C1CC[C@H](CN2Cc3c(C(=O)NCc4ccc(Cl)cc4)nn(Cc4nccs4)c3C2)N1 [Compound 48] | – | 4020 nM |
